This is an account of results in US8883778B2, “Cyclic inhibitors of 11 beta-hydroxysteroid dehydrogenase 1” (Vitae Pharmaceuticals, Inc., priority 2009, dated 2014).

A word on the inhibition: it is the percentage by which the read-out fell short of the control. High values mean strong suppression, low ones little suppression. As usually defined, the IC50 is the concentration that inhibits the measured activity by half. A low value points to greater potency.

This test addresses 11β-HSD1 (Homo sapiens, UniProt P28845). The test can be described thus: Inhibition of a microsomal preparation of 11β-HSD1, scintillation proximity assay. The format is biochemical. Set-up: expressed in transfected cells; host or cells: CHO cells (microsomes). Particulars: microsomes from CHO cells overexpressing human 11β-HSD1; for inhibition at 0.1 µM: at 100 nM. The method, then: All reactions were carried out at rt in 96 well clear flexible PET Microbeta plates (PerkinElmer). […] After a 10 minute pre-incubation, 50 μL of enzyme solution containing microsomes isolated from CHO cells overexpressing human 11β-HSD1 (10-20 μg/ml of total protein) was added, and the plates were incubated for 90 minutes at rt. The reaction was stopped by adding 50 μl of the SPA beads suspension containing 10 μM 18β-glycyrrhetinic acid, 5 mg/ml protein A coated YSi SPA beads (GE Healthcare) and 3.3 μg/ml of anti-cortisol antibody (East Coast Biologics) in Superblock buffer (Bio-Rad). The plates were shaken for 120 minutes at rt, and the SPA signal corresponding to [^3H]cortisol was measured on a Microbeta plate reader.
(Scintillation proximity formats need no separation of bound from free tracer.)

Sequence of 11β-HSD1 (P28845 whole entry): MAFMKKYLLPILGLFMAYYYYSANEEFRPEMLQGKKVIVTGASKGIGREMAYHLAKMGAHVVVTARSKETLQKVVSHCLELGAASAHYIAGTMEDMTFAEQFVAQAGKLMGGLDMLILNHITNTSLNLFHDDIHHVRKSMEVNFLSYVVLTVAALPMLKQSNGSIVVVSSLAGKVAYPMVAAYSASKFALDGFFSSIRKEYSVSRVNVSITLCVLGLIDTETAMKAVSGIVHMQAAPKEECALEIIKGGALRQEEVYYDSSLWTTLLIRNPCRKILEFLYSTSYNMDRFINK

On to `C[C@@H](c1ccc(C#CC2(O)CCCC2)cc1)N1CC[C@](CC(C)(C)O)(c2ccccc2)OC1=O` [Example 2, (S)-6-(2-hydroxy-2-methylpropyl)-3-((S)-1-(4-((1-hydroxycyclopentyl)ethynyl)phenyl)ethyl)-6-phenyl-1,3-oxazinan-2-one], for which testing at 0.1 µM gave an inhibition of 89.1% and the IC50 was 1.9 nM.
For the compound `C[C@@H](c1ccc(C#CC(C)(C)N2CCOC2=O)cc1)N1CC[C@](CC(C)(C)O)(c2ccccc2)OC1=O` [Example 3, (S)-6-(2-hydroxy-2-methylpropyl)-3-((S)-1-(4-(3-methyl-3-(2-oxooxazolidin-3-yl)but-1-ynyl)phenyl)ethyl)-6-phenyl-1,3-oxazinan-2-one], the inhibition at 0.1 µM came out at 99.8% and the IC50 was 1.1 nM.
The matching figures for `C[C@@H](c1ccc(C#CC(C)(C)C(=O)O)cc1)N1CC[C@](CC(C)(C)O)(c2ccccc2)OC1=O` [Example 4, 4-(4-((S)-1-((S)-6-(2-hydroxy-2-methylpropyl)-2-oxo-6-phenyl-1,3-oxazinan-3-yl)ethyl)phenyl)-2,2-dimethylbut-3-ynoic acid]: 86% and 13.4 nM.
Consider `C[C@@H](c1ccc(C#CC(C)(C)C(=O)N(C)C)cc1)N1CC[C@](CC(C)(C)O)(c2ccccc2)OC1=O` [Example 5, 4-(4-((S)-1-((S)-6-(2-hydroxy-2-methylpropyl)-2-oxo-6-phenyl-1,3-oxazinan-3-yl)ethyl)phenyl)-N,N,2,2-tetramethylbut-3-ynamide], for which at 0.1 µM the inhibition was 97% and inhibition was half-maximal at 1.1 nM (IC50).
The matching figures for `C[C@@H](c1ccc(C#CC(C)(C)C(=O)NC2CC2)cc1)N1CC[C@](CC(C)(C)O)(c2ccccc2)OC1=O` [Example 7, N-cyclopropyl-4-(4-((S)-1-((S)-6-(2-hydroxy-2-methylpropyl)-2-oxo-6-phenyl-1,3-oxazinan-3-yl)ethyl)phenyl)-2,2-dimethylbut-3-ynamide]: 93.5% and 5.2 nM.
`C[C@@H](c1ccc(C#CC(C)(C)NC(=O)C2CC2)cc1)N1CC[C@](CC(C)(C)O)(c2ccccc2)OC1=O` [Example 8, N-(4-(4-((S)-1-((S)-6-(2-hydroxy-2-methylpropyl)-2-oxo-6-phenyl-1,3-oxazinan-3-yl)ethyl)phenyl)-2-methylbut-3-yn-2-yl)cyclopropanecarboxamide]: the inhibition at 0.1 µM came to 92.2% and inhibition was half-maximal at 7.5 nM (IC50).
Take `C[C@@H](c1ccc(C#Cc2ccccn2)cc1)N1CC[C@](CC(C)(C)O)(c2ccccc2)OC1=O` [Example 9, (S)-6-(2-hydroxy-2-methylpropyl)-6-phenyl-3-((S)-1-(4-(pyridin-2-ylethynyl)phenyl)ethyl)-1,3-oxazinan-2-one]: 0.1 µM produced 96.6% inhibition and the IC50 amounted to 1 nM.
In the same order, the values of `C[C@@H](c1ccc(C#CC2(O)CCOCC2)cc1)N1CC[C@](CC(C)(C)O)(c2ccccc2)OC1=O` [Example 10, (S)-6-(2-hydroxy-2-methylpropyl)-3-((S)-1-(4-((4-hydroxytetrahydro-2H-pyran-4-yl)ethynyl)phenyl)ethyl)-6-phenyl-1,3-oxazinan-2-one] are 84.7% and 6.9 nM.
`C[C@@H](c1ccc(C#CC2(O)CCN(C)CC2)cc1)N1CC[C@](CC(C)(C)O)(c2ccccc2)OC1=O` [Example 11, (S)-3-((S)-1-(4-((4-hydroxy-1-methylpiperidin-4-yl)ethynyl)phenyl)ethyl)-6-(2-hydroxy-2-methylpropyl)-6-phenyl-1,3-oxazinan-2-one] gave an inhibition at 0.1 µM of 50.5% and an IC50 of 86.3 nM.
`C[C@@H](c1ccc(C#CC(C)(C)N)cc1)N1CC[C@](CC(C)(C)O)(c2ccccc2)OC1=O` [Example 12, (S)-3-((S)-1-(4-(3-amino-3-methylbut-1-ynyl)phenyl)ethyl)-6-(2-hydroxy-2-methylpropyl)-6-phenyl-1,3-oxazinan-2-one] returned an inhibition at 0.1 µM of 63.7% and an IC50 of 53.4 nM.
In the same order, the values of `C[C@@H](c1ccc(C#CC2(N)CCCCC2)cc1)N1CC[C@](CC(C)(C)O)(c2ccccc2)OC1=O` [Example 13, (S)-3-((S)-1-(4-((1-aminocyclohexyl)ethynyl)phenyl)ethyl)-6-(2-hydroxy-2-methylpropyl)-6-phenyl-1,3-oxazinan-2-one] are 82.5% and 12.4 nM.
Compound `CC(=O)NC1(C#Cc2ccc([C@H](C)N3CC[C@](CC(C)(C)O)(c4ccccc4)OC3=O)cc2)CCCCC1` [Example 14, N-(1-((4-((S)-1-((S)-6-(2-hydroxy-2-methylpropyl)-2-oxo-6-phenyl-1,3-oxazinan-3-yl)ethyl)phenyl)ethynyl)cyclohexyl)acetamide] yielded an inhibition at 0.1 µM of 89.8% and an IC50 of 4.2 nM.
For `COC(=O)NC1(C#Cc2ccc([C@H](C)N3CC[C@](CC(C)(C)O)(c4ccccc4)OC3=O)cc2)CCCCC1` [Example 15, Methyl 1-((4-((S)-1-((S)-6-(2-hydroxy-2-methylpropyl)-2-oxo-6-phenyl-1,3-oxazinan-3-yl)ethyl)phenyl)ethynyl)cyclohexylcarbamate], at 0.1 µM the inhibition was 92.4% and 2.4 nM corresponded to half-maximal inhibition (IC50).
In the same order, the values of `C[C@@H](c1ccc(C#CC2(NC(N)=O)CCCCC2)cc1)N1CC[C@](CC(C)(C)O)(c2ccccc2)OC1=O` [Example 16, 1-(1-((4-((S)-1-((S)-6-(2-hydroxy-2-methylpropyl)-2-oxo-6-phenyl-1,3-oxazinan-3-yl)ethyl)phenyl)ethynyl)cyclohexyl)urea] are 95.6% and 3.1 nM.
Compound `CC(=O)NC(C)(C)C#Cc1ccc([C@H](C)N2CC[C@](CC(C)(C)O)(c3ccccc3)OC2=O)cc1` [Example 17, N-(4-(4-((S)-1-((S)-6-(2-hydroxy-2-methylpropyl)-2-oxo-6-phenyl-1,3-oxazinan-3-yl)ethyl)phenyl)-2-methylbut-3-yn-2-yl)acetamide] came in with an inhibition at 0.1 µM of 84.9% and an IC50 of 11.9 nM.
Take `COC(=O)NC(C)(C)C#Cc1ccc([C@H](C)N2CC[C@](CC(C)(C)O)(c3ccccc3)OC2=O)cc1` [Example 18, methyl 4-(4-((S)-1-((S)-6-(2-hydroxy-2-methylpropyl)-2-oxo-6-phenyl-1,3-oxazinan-3-yl)ethyl)phenyl)-2-methylbut-3-yn-2-ylcarbamate]: at 0.1 µM the inhibition was 94.5% and the IC50 turned out to be 3.7 nM.
Compound `C[C@@H](c1ccc(C#CC(C)(C)NC(N)=O)cc1)N1CC[C@](CC(C)(C)O)(c2ccccc2)OC1=O` [Example 19, 1-(4-(4-((S)-1-((S)-6-(2-hydroxy-2-methylpropyl)-2-oxo-6-phenyl-1,3-oxazinan-3-yl)ethyl)phenyl)-2-methylbut-3-yn-2-yl)urea] displayed an inhibition at 0.1 µM of 97.6% and an IC50 of 2.4 nM.
In turn, `CNC(=O)NC(C)(C)C#Cc1ccc([C@H](C)N2CC[C@](CC(C)(C)O)(c3ccccc3)OC2=O)cc1` [Example 20, 1-(4-(4-((S)-1-((S)-6-(2-hydroxy-2-methylpropyl)-2-oxo-6-phenyl-1,3-oxazinan-3-yl)ethyl)phenyl)-2-methylbut-3-yn-2-yl)-3-methylurea] yielded an inhibition at 0.1 µM of 92.2% and an IC50 of 4.2 nM.
In turn, `C[C@@H](c1ccc(C#CC(C)(C)NS(C)(=O)=O)cc1)N1CC[C@](CC(C)(C)O)(c2ccccc2)OC1=O` [Example 21, N-(4-(4-((S)-1-((S)-6-(2-hydroxy-2-methylpropyl)-2-oxo-6-phenyl-1,3-oxazinan-3-yl)ethyl)phenyl)-2-methylbut-3-yn-2-yl)methanesulfonamide] yielded an inhibition at 0.1 µM of 93.7% and an IC50 of 3.4 nM.
For the compound `C=C(C)C[C@]1(c2ccccc2)CCN([C@@H](C)c2ccc(C#CC(C)(C)NS(C)(=O)=O)cc2)C(=O)O1` [Example 22, N-(2-methyl-4-(4-((S)-1-((R)-6-(2-methylallyl)-2-oxo-6-phenyl-1,3-oxazinan-3-yl)ethyl)phenyl)but-3-yn-2-yl)methanesulfonamide], at 0.1 µM the inhibition was 93.6% and it took 1.8 nM to reach half-maximal inhibition (IC50).
On to `C[C@@H](c1ccc(C#CC(C)(C)NC(=O)N(C)C)cc1)N1CC[C@](CC(C)(C)O)(c2ccccc2)OC1=O` [Example 23, 3-(4-(4-((S)-1-((S)-6-(2-hydroxy-2-methylpropyl)-2-oxo-6-phenyl-1,3-oxazinan-3-yl)ethyl)phenyl)-2-methylbut-3-yn-2-yl)-1,1-dimethylurea], for which testing at 0.1 µM gave an inhibition of 86% and half-maximal inhibition (IC50) required 12.3 nM.
The compound `C[C@@H](c1ccc(C#CC2(O)CNC2)cc1)N1CC[C@](CC(C)(C)O)(c2ccccc2)OC1=O` [Example 24, (S)-6-(2-hydroxy-2-methylpropyl)-3-((S)-1-(4-((3-hydroxyazetidin-3-yl)ethynyl)phenyl)ethyl)-6-phenyl-1,3-oxazinan-2-one] gave an inhibition at 0.1 µM of 56.1% and an IC50 of 62.3 nM.
Compound `CC(=O)N1CC(O)(C#Cc2ccc([C@H](C)N3CC[C@](CC(C)(C)O)(c4ccccc4)OC3=O)cc2)C1` [Example 25, (S)-3-((S)-1-(4-((1-acetyl-3-hydroxyazetidin-3-yl)ethynyl)phenyl)ethyl)-6-(2-hydroxy-2-methylpropyl)-6-phenyl-1,3-oxazinan-2-one] came in with an inhibition at 0.1 µM of 94.1% and an IC50 of 3.6 nM.
The compound `COC(=O)N1CC(O)(C#Cc2ccc([C@H](C)N3CC[C@](CC(C)(C)O)(c4ccccc4)OC3=O)cc2)C1` [Example 26, Methyl 3-hydroxy-3-((4-((S)-1-((S)-6-(2-hydroxy-2-methylpropyl)-2-oxo-6-phenyl-1,3-oxazinan-3-yl)ethyl)phenyl)ethynyl)azetidine-1-carboxylate] came in with an inhibition at 0.1 µM of 95.9% and a half-inhibitory concentration (IC50) of 2.8 nM.
